Results on 8 compounds are retold here after publication PMC10258898, “Discovery of Novel Hydroxyimine-Tethered Benzenesulfonamides as Potential Human Carbonic Anhydrase IX/XII Inhibitors” (ACS Medicinal Chemistry Letters, 2023).

For orientation: melting point means the temperature, or range, at which the solid turns liquid. The Ki is a measure of affinity in units of concentration, obtained from inhibition or displacement.

The target of data set [1] is hCA IX (Homo sapiens, UniProt Q16790). Kind of data set: Stopped-flow CO2 hydrase assay, hCA IX inhibition.
Procedure: (§1) as indicator, working at the absorbance maximum of 557 nm, with 20 mM Hepes (pH 7.5) as
(§2) buffer, and 20 mM Na2SO4 (for maintaining constant the ionic strength), following the initial
(§3) have been used for determining the initial velocity. The uncatalyzed rates were determined in
(§4) the same manner and subtracted from the total observed rates. Stock solutions of inhibitor
(§5) (0.1 mM) were prepared in distilled−deionized water and dilutions up to 0.01 nM were done
(§6) thereafter with the assay buffer. Inhibitor and enzyme solutions were preincubated together for 15 min at room temperature prior to assay, in order to allow for the formation of the E−I complex. The inhibition constants were subsequently obtained by nonlinear least-squares
(§7) methods using PRISM 3 and the Cheng−Prusoff equation, as reported earlier, and represent
(§8) the mean from at least three different determinations. All CA isofoms were recombinant ones
(§9) obtained in-house as reported earlier2,3.
Data set [2] has as its target hCA XII (Homo sapiens, UniProt O43570). Kind of data set: Stopped-flow CO2 hydrase assay, hCA XII inhibition. The note with it: read-out: Ki (nM) hCA XII, mean from 3 different assays, errors ±5–10%.
Procedure: as §1, §2, §3, §4, §5, §6, §7, §8, §9
[3] abbreviates: read-out: Ki (nM) hCA IX, mean from 3 different assays, errors ±5–10%, stopped-flow CO2 hydrase assay.

Where two headings read alike, the source gives them in different places.

hCA XII, sequence (O43570 25-354): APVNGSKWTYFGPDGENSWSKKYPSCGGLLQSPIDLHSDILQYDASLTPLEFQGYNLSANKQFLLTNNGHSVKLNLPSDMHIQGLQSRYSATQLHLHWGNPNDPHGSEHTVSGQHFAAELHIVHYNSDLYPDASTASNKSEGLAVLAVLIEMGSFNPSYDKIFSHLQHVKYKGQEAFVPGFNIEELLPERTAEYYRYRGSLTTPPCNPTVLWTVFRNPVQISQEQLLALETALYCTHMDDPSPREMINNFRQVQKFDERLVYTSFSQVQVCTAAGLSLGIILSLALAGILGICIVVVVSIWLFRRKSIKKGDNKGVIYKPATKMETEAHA

The compound `NS(=O)(=O)c1ccc(N2CCN(/C(=N/O)c3ccncc3)CC2)cc1` [Compound 27] came in with a melting point of 310 to 311 °C. For the same compound, the inhibition constant (Ki) in data set [1] (setting [3]) was found to be 110 nM.

For `NS(=O)(=O)c1ccc(N2CCN(/C(=N/O)c3ccc(O)cc3)CC2)cc1` [Compound 28], the melting point lay in the range of 320 to 321 °C. In addition, the Ki in data set [1] (setting [3]) was 1180 nM.

In the case of `NS(=O)(=O)c1ccc(N2CCN(/C(=N/O)c3ccccc3)CC2)cc1` [Compound 29], the inhibition constant Ki in data set [1] (setting [3]) is 121 nM.

`NS(=O)(=O)c1ccc(N2CCN(C(=NO)c3ccc(Cl)cc3)CC2)cc1` [Compound 30]: the melting point was found to be 321 °C. The Ki in data set [1] worked out at 43 nM.

On to `COc1ccc(/C(=N\O)N2CCN(c3ccc(S(N)(=O)=O)cc3)CC2)cc1` [Compound 31], for which the melting point lay within 310 to 311 °C. For the same compound, the Ki in data set [1] (setting [3]) turned out to be 739 nM.

As for `NS(=O)(=O)c1ccc(N2CCN(/C(=N/O)c3ccc([N+](=O)[O-])cc3)CC2)cc1` [Compound 32], the melting point is 302 to 303 °C. In addition, in data set [1] (setting [3]), the inhibitory constant (Ki) is 912 nM. In addition, the inhibition constant (Ki) in data set [2] is > 10000 nM.

The compound `NS(=O)(=O)c1ccc(N2CCN(/C(=N/O)c3ccc(F)cc3)CC2)cc1` [Compound 33] gave a melting point of 263 °C. For the same compound, in data set [1] (setting [3]), the inhibition constant Ki turned out to be 1340 nM.

On to `Cc1ccc(/C(=N\O)N2CCN(c3ccc(S(N)(=O)=O)cc3)CC2)cc1` [Compound 34], for which the melting point is 263 to 264 °C. The Ki in data set [1] (setting [3]) is > 10000 nM.
